# Measurements from patent US20040023312A1, “Method for diagnosing huntingtons disease and means of treating it” (priority 2002, published 2004).
# Where two headings read alike, the source gives them in different places.
# Key:
# [1] = in vivo; cited from earlier work
# A2A receptor = A2A receptor (Rattus norvegicus, UniProt P30543); details: for cAMP formation with NECA + antagonist: 100 nM NECA, ST14A cells
# adenyl cyclase = assay: cAMP levels stimulated by forskolin in ST14A parental cells and huntingtin clones; type: cell-based, rat
# G-proteins = assay: cAMP response induced by GTP-gammaS, a direct stimulator of G-proteins; type: cell-based, rat; details: 10 μM GTP-gammaS; parental clone
# Description: This concept is set down in the next page.
# [2] = focal ischaemia model; cited from earlier work
# N548wt cells = assay: Serum-deprivation induced cell death (mitochondrial function); details: antagonist 100 nM, 24 h serum-free medium
# Description: Cell death has been induced by shifting cultures to serum-free medium in the absence (black columns) or presence of the indicated A2A receptor antagonists. Data are the mean±S.E. of 6 experiments run in triplicate and are expressed as % of total cell death. *p<0.05 vs. control, Scheffe's test.
# To assess the functional importance of the aberrant A2A receptor phenotype and its possible correlation with susceptibility to cell death, we have performed experiments where the influence of A2A receptor antagonists on the survival rate of ST14A cells have been specifically determined.
# Chain of A2A receptor (P30543 whole entry): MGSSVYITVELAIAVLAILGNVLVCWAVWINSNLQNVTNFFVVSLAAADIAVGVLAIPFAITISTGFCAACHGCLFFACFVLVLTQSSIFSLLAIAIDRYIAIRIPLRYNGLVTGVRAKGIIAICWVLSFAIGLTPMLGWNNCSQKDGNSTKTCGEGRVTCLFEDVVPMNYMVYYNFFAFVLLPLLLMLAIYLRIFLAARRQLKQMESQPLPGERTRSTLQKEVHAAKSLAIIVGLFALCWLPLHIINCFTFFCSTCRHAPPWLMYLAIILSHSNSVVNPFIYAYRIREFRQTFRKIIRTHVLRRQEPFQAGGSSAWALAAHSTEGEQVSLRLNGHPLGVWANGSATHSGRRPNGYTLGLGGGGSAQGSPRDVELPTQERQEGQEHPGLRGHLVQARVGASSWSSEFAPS
compound,measurement,setting,value
CCCCC#Cc1nc(N)c2ncn([C@@H]3O[C@H](C(=O)NCC)[C@@H](O)[C@H]3O)c2n1 [2-hexinyl-NECA],convulsions induced by pentyl-tetrazole,[1],markedly reduces
"Cn1c(=O)c2c(ncn2C)n(C)c1=O [Caffeine, caffeine]",cAMP formation with NECA + antagonist,A2A receptor; antagonist 10 μM,30 ± 3 pmole/10^5 cells
same,cAMP formation with NECA + antagonist,A2A receptor; antagonist 100 μM,27 ± 3 pmole/10^5 cells
same,cAMP formation with NECA + antagonist,A2A receptor; antagonist 1 mM,24 ± 3 pmole/10^5 cells
same,antagonism of the increases in cAMP induced by NECA,"A2A receptor; NECA 100 nM, parental clone and engineered clones",completely antagonizing
C=C[C@@]1(C)CC(=O)[C@]2(O)[C@@]3(C)[C@@H](O)CCC(C)(C)[C@@H]3[C@H](O)[C@H](OC(C)=O)[C@@]2(C)O1 [Forskolin],cyclic AMP levels stimulated by forskolin,"adenyl cyclase; Forskolin 1 μM + Ro201724 0.5 mM, FL mu cells",78 ± 7 pmoles/10^5 cells
same,cyclic AMP levels stimulated by forskolin,"adenyl cyclase; Forskolin 1 μM + Ro201724 0.5 mM, FL wt cells",60 ± 6 pmoles/10^5 cells
same,cyclic AMP levels stimulated by forskolin,"adenyl cyclase; Forskolin 1 μM + Ro201724 0.5 mM, N548 wt cells",63 ± 6 pmoles/10^5 cells
same,cyclic AMP levels stimulated by forskolin,"adenyl cyclase; Forskolin 1 μM + Ro201724 0.5 mM, ST14A cells",58 ± 4 pmoles/10^5 cells
same,cyclic AMP levels stimulated by forskolin,"adenyl cyclase; Forskolin 1 μM, FL mu cells",55 ± 5 pmoles/10^5 cells
same,cyclic AMP levels stimulated by forskolin,"adenyl cyclase; Forskolin 1 μM, FL wt cells",54 ± 6 pmoles/10^5 cells
same,cyclic AMP levels stimulated by forskolin,"adenyl cyclase; Forskolin 1 μM, N548 wt cells",47 ± 3 pmoles/10^5 cells
same,cyclic AMP levels stimulated by forskolin,"adenyl cyclase; Forskolin 1 μM, ST14A cells",45 ± 5 pmoles/10^5 cells
Nc1nc2c(ncn2[C@@H]2O[C@H](COP(=O)(O)OP(=O)(O)OP(O)(O)=S)[C@@H](O)[C@H]2O)c(=O)[nH]1 [GTP-gammaS],cAMP levels in the presence of GTP-gammaS,G-proteins,65±2 pmoles/10^5 cells
"Nc1nc2c(cnn2CCc2ccccc2)c2nc(-c3ccco3)nn12 [SCH 58261, 5-amino-7-(2-phenylethyl)-2-(2-furyl)pyrazolo[4,3-e]-1,2,4-triazolo [1,5-c]pyrimidine]",cortical damage associated with occlusion of the middle cerebral artery,[2],significantly reducing
same,effect on extent of serum-deprivation induced cell death,N548wt cells,did not significantly affect
"Nc1nc(NCCc2ccc(O)cc2)nc2nc(-c3ccco3)nn12 [ZM 241385, 4-[2-[[7-amino-2-(2-furyl)[1,2,4]triazolo[2,3-a][1,3,5]triazin-5-yl]amino]ethyl]phenol]",effect on extent of serum-deprivation induced cell death,N548wt cells,did not significantly affect
